{
  "source": "PubChem BioAssay AID651892",
  "about": "(Broad Institute, 2012)",
  "tested_on": "L. donovani axenic amastigotes, Alamar Blue fluorescence, 72 h",
  "experiment": "L. donovani amastigote growth inhibition, dose response, axenic amastigotes, plate reader, dry powder (AID 651892)",
  "note": "Calls of active or inactive are those of the source.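 The calls were made as follows: active = IC50 below three times the IC50 of the reference antileishmanial control drug; inactive = the rest.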",
  "data": [
    {"smiles": "C[C@@H]1CN([C@@H](C)CO)C(=O)c2cccc(NC(=O)c3ccncc3)c2O[C@H]1CN(C)Cc1ccc(Oc2ccccc2)cc1", "values": [
      {"measurement": "IC50", "value": "40.5 µM (inactive)"}
    ]}
  ]
}
